The subject of the assay is hepatitis B virus. The experiment in a line: Anti-viral effect on hepatitis B virus in SCID mice injected with patient serum, plasma HBsAg by ELISA. It counts as in vivo. On the procedure: The serum of the patient infected with hepatitis B virus was collected and injected into the SCID mice. Interferon-alpha, Interferon-alpha-containing emulsions and untreated groups of mice were divided to evaluate antiviral bioactivity of inteferon. Different formulations were administered at the interferon-alpha dose of 1000 units/g body weight of mice. Three days later, blood was collected and the concentrations of hepatitis B virus surface antigen (HBsAg) in plasma were determined by ELISA method.

Regarding Interferon-alpha, the “anti-viral effect compared to the untreated control” value (p<0.05) is “statistically significant anti-viral effect”. The “relative HBsAg ratio to the untreated control” value (plasma, three days after 1000 units/g body weight, untreated defined as 1.0) stood at 0.29±0.4.

The values above are taken from patent publication US20040219175A1, “Thermogelling emulsions for sustained release of bioactive substances” (Industrial Technology Research Institute, priority 2002, published 2004).
